Source: patent US20090060851A1, “USE OF IDEBENONE FOR THE PREPARATION OF A TOPICALLY-APPLIED DEPIGMENTATION COMPOSITION AND CORRESPONDING COMPOSITION” (priority 2005, published 2009)

Key:
Type in all cases: cell-based, human
SK-MEL-28 [1] = assay: Melanin content determination (OD400) in SK-MEL cells
Protocol: (§1) In vitro determinations were performed following the method devised by Dooley et al. (Skin Pharmacol. 1994; 7:188-200) in order to evaluate the capacity of idebenone to inhibit melanogenesis, according to the process described below:
(§2) Cells: The study was carried out using a cell line derived from human melanoma, provided by ABAC (Asociación Banco Argentino de Células—Cell Bank of Argentina), with melanin synthesis capability (SK-MEL-28, ATCC origin). The cells were grown in plastic culture bottles or in 24-well plastic dishes in a modified Eagle medium (DMEM) supplemented with 10% fetal bovine serum (FBS) and were maintained at 37° C. in a 5% CO2 atmosphere.
(§3) Study of in vitro compounds: SK-MEL cells detached with trypsin were seeded on plastic 24-well dishes (density of 1×10^5 cells per well) and incubated for 24 hours in modified Eagle medium (DMEM) supplemented with 10% fetal bovine serum (FBS) prior to treating with the compound to be evaluated. After 24 hours have lapsed, the medium was replaced with 990 μl of fresh medium. 10 μl of sterile vehicle (50% propylene glycol, 30% ethanol and 20% distilled water) containing different concentrations of the compounds to be evaluated were added to this fresh medium.
(§4) Decimal dilutions of each compound in the sterile vehicle were prepared in order to obtain final concentrations of the compound to be studied ranging between 1.000 and 0.01 μg/ml. […]
[…] The cells were thus continuously exposed to the compounds under study for the 5 days the culture lasted. All the concentrations of the compounds were studied in triplicate, comparing the mean of the 3 wells treated with the compounds with those treated with the vehicle alone.
(§5) Melanin content determination: The SK-MEL cell melanin content was determined after stirring the culture medium and washing the cells with PBS. The cells were then lysated by means of adding 1 ml of 1N NaOH to each well and repeated manual pipetting. The raw cell extract was analyzed using a spectrophotometer at 400 and 475 nm to determine the melanin and dopaquinone content, respectively. The results were expressed as a percentage of the cell cultures treated with the vehicle.

SK-MEL-28 [2] = assay: Cytopathic effects on cell cultures, inverted microscope
Protocol: An experiment similar to the one described in the previous example was designed for the purpose of establishing whether idebenone inhibits melanogenesis in cells in culture, but in this case the cells were treated for only 1 day, whereas the results were evaluated on the third day.
An experiment similar to the one described in the previous example was designed for the purpose of establishing whether idebenone inhibits melanogenesis in cells in culture, but in this case the cells were treated for 2 days and the results were evaluated on the fourth day.
An experiment similar to the one described in the previous example was designed for the purpose of establishing whether idebenone inhibits melanogenesis in cells in culture, but in this case the cells were treated for 5 days and the results were evaluated on the fifth day.

SK-MEL-28 [3] = assay: Dopaquinone content determination (OD475) in SK-MEL cells
Protocol: as §1, §2, §3, §4
[…] […] All the concentrations of the compounds were studied in triplicate, comparing the mean of the 3 wells treated with the compounds with those treated with the vehicle alone.
as §5

[4] = Example 9 (similar to Example 6), dilution −2
[5] = Example 9 (similar to Example 6), dilution −3
[6] = Example 9 (similar to Example 6), dilution −4
[7] = Example 9 (similar to Example 6), dilution −5
[8] = Example 9 (similar to Example 6), dilution −6
[9] = Example 9 (similar to Example 6), dilution −7
[10] = Example 9 (similar to Example 6), dilution −8
[11] = dilution −1, treated daily 3 days, assayed day 5
[12] = dilution −2, treated 1 day, evaluated third day
[13] = dilution −2, treated daily 3 days, assayed day 5
[14] = dilution −3, treated 1 day, evaluated third day
[15] = dilution −3, treated daily 3 days, assayed day 5
[16] = dilution −4, treated 1 day, evaluated third day
[17] = dilution −4, treated 2 days, evaluated fourth day
[18] = dilution −4, treated daily 3 days, assayed day 5
[19] = dilution −4, treated for 5 days (heading: 3 days), evaluated fifth day
[20] = dilution −5, treated 1 day, evaluated third day
[21] = dilution −5, treated 2 days, evaluated fourth day
[22] = dilution −5, treated daily 3 days, assayed day 5
[23] = dilution −5, treated for 5 days (heading: 3 days), evaluated fifth day
[24] = dilution −6, treated 1 day, evaluated third day
[25] = dilution −6, treated 2 days, evaluated fourth day
[26] = dilution −6, treated for 5 days (heading: 3 days), evaluated fifth day

COC1=C(OC)C(=O)C(CCCCCCCCCCO)=C(C)C1=O [idebenone, 6-(10-hydroxydecyl)-2,3-dimethoxy-5-methyl-1,4-benzoquinone]
OD400 (melanin) (SK-MEL-28 [1]; [4]): 0.01166 | OD400 Percentage (melanin) (SK-MEL-28 [1]; [4]): 71.40% | OD400 (melanin) (SK-MEL-28 [1]; [5]): 0.01566 | OD400 Percentage (melanin) (SK-MEL-28 [1]; [5]): 95.89% | OD400 (melanin) (SK-MEL-28 [1]; [6]): 0.01533 | OD400 Percentage (melanin) (SK-MEL-28 [1]; [6]): 93.87% | OD400 (melanin) (SK-MEL-28 [1]; [7]): 0.01466 | OD400 Percentage (melanin) (SK-MEL-28 [1]; [7]): 89.77% | OD400 (melanin) (SK-MEL-28 [1]; [8]): 0.009 | OD400 Percentage (melanin) (SK-MEL-28 [1]; [8]): 55.11% | OD400 (melanin) (SK-MEL-28 [1]; [9]): 0.01166 | OD400 Percentage (melanin) (SK-MEL-28 [1]; [9]): 71.40% | OD400 (melanin) (SK-MEL-28 [1]; [10]): 0.01166 | OD400 Percentage (melanin) (SK-MEL-28 [1]; [10]): 71.40% | Melanin synthesis inhibition (SK-MEL-28 [1]; SK-MEL-28, Example 5): inhibits melanin synthesis in a dose-dependent manner | OD400 (melanin) (SK-MEL-28 [1]; [11]): 0.0156 | OD400 expressed as percentage of control (melanin) (SK-MEL-28 [1]; [11]): 28% | OD400 (melanin) (SK-MEL-28 [1]; [12]): 0.0040 | OD400 Percentage (melanin) (SK-MEL-28 [1]; [12]): 14.65% | OD400 (melanin) (SK-MEL-28 [1]; [13]): 0.0140 | OD400 expressed as percentage of control (melanin) (SK-MEL-28 [1]; [13]): 40% | OD400 (melanin) (SK-MEL-28 [1]; [14]): 0.0133 | OD400 Percentage (melanin) (SK-MEL-28 [1]; [14]): 48.72% | OD400 (melanin) (SK-MEL-28 [1]; [15]): 0.0123 | OD400 expressed as percentage of control (melanin) (SK-MEL-28 [1]; [15]): 52% | OD400 (melanin) (SK-MEL-28 [1]; [16]): 0.0243 | OD400 Percentage (melanin) (SK-MEL-28 [1]; [16]): 89.01% | OD400 (melanin) (SK-MEL-28 [1]; [17]): 0.0613 | OD400 Percentage (melanin) (SK-MEL-28 [1]; [17]): 112.89% | OD400 (melanin) (SK-MEL-28 [1]; [18]): 0.0096 | OD400 expressed as percentage of control (melanin) (SK-MEL-28 [1]; [18]): 59% | OD400 (melanin) (SK-MEL-28 [1]; dilution −4, treated for 3 days, evaluated fifth day): 0.0686 | OD400 Percentage (melanin) (SK-MEL-28 [1]; [19]): 77.69% | OD400 (melanin) (SK-MEL-28 [1]; [20]): 0.0343 | OD400 Percentage (melanin) (SK-MEL-28 [1]; [20]): 125.64% | OD400 (melanin) (SK-MEL-28 [1]; [21]): 0.0626 | OD400 Percentage (melanin) (SK-MEL-28 [1]; [21]): 115.28% | OD400 (melanin) (SK-MEL-28 [1]; [22]): 0.0066 | OD400 expressed as percentage of control (melanin) (SK-MEL-28 [1]; [22]): 66% | OD400 (melanin) (SK-MEL-28 [1]; dilution −5, treated for 3 days, evaluated fifth day): 0.0742 | OD400 Percentage (melanin) (SK-MEL-28 [1]; [23]): 84.03% | OD400 (melanin) (SK-MEL-28 [1]; [24]): 0.0313 | OD400 Percentage (melanin) (SK-MEL-28 [1]; [24]): 114.65% | OD400 (melanin) (SK-MEL-28 [1]; [25]): 0.0396 | OD400 Percentage (melanin) (SK-MEL-28 [1]; [25]): 72.92% | OD400 (melanin) (SK-MEL-28 [1]; dilution −6, treated for 3 days, evaluated fifth day): 0.0801 | OD400 Percentage (melanin) (SK-MEL-28 [1]; [26]): 90.71% | Melanogenesis inhibition at high dilutions (SK-MEL-28 [1]; −2 to −8 dilutions): preserves its ability to inhibit melanogenesis | Cytopathic effects (SK-MEL-28 [2]; remaining dilutions (−2 to −6), treated 1 day): no cytopathic effect whatsoever | Cytopathic effects (SK-MEL-28 [2]; −1 dilution, treated 1 day): cytopathic effects | Cytopathic effects (SK-MEL-28 [2]; −4, −5 and −6 dilutions, Example 8): No cytopathic effect was observed | Cytopathic effects (SK-MEL-28 [2]; −4, −5 and −6 dilutions, treated 2 days): No cytopathic effect was observed | OD475 (dopaquinone) (SK-MEL-28 [3]; [4]): 0.0024 | OD475 Percentage (dopaquinone) (SK-MEL-28 [3]; [4]): 14.45% | OD475 (dopaquinone) (SK-MEL-28 [3]; [5]): 0.0038 | OD475 Percentage (dopaquinone) (SK-MEL-28 [3]; [5]): 22.89% | OD475 (dopaquinone) (SK-MEL-28 [3]; [6]): 0.0133 | OD475 Percentage (dopaquinone) (SK-MEL-28 [3]; [6]): 80.12% | OD475 (dopaquinone) (SK-MEL-28 [3]; [7]): 0.0139 | OD475 Percentage (dopaquinone) (SK-MEL-28 [3]; [7]): 83.73% | OD475 (dopaquinone) (SK-MEL-28 [3]; [8]): 0.0116 | OD475 Percentage (dopaquinone) (SK-MEL-28 [3]; [8]): 69.87% | OD475 (dopaquinone) (SK-MEL-28 [3]; [9]): 0.0139 | OD475 Percentage (dopaquinone) (SK-MEL-28 [3]; [9]): 83.73% | OD475 (dopaquinone) (SK-MEL-28 [3]; [10]): 0.0133 | OD475 Percentage (dopaquinone) (SK-MEL-28 [3]; [10]): 80.12% | OD475 (dopaquinone) (SK-MEL-28 [3]; [11]): 0.0011 | OD475 expressed as percentage of control (dopaquinone) (SK-MEL-28 [3]; [11]): 9% | OD475 (dopaquinone) (SK-MEL-28 [3]; [12]): 0.0030 | OD475 Percentage (dopaquinone) (SK-MEL-28 [3]; [12]): 18.75% | OD475 (dopaquinone) (SK-MEL-28 [3]; [13]): 0.0016 | OD475 expressed as percentage of control (dopaquinone) (SK-MEL-28 [3]; [13]): 14% | OD475 (dopaquinone) (SK-MEL-28 [3]; [14]): 0.0050 | OD475 Percentage (dopaquinone) (SK-MEL-28 [3]; [14]): 31.25% | OD475 (dopaquinone) (SK-MEL-28 [3]; [15]): 0.0043 | OD475 expressed as percentage of control (dopaquinone) (SK-MEL-28 [3]; [15]): 37% | OD475 (dopaquinone) (SK-MEL-28 [3]; [16]): 0.0123 | OD475 Percentage (dopaquinone) (SK-MEL-28 [3]; [16]): 76.87% | OD475 (dopaquinone) (SK-MEL-28 [3]; [17]): 0.0400 | OD475 Percentage (dopaquinone) (SK-MEL-28 [3]; [17]): 103.62% | OD475 (dopaquinone) (SK-MEL-28 [3]; [18]): 0.0053 | OD475 expressed as percentage of control (dopaquinone) (SK-MEL-28 [3]; [18]): 46% | OD475 (dopaquinone) (SK-MEL-28 [3]; [19]): 0.0513 | OD475 Percentage (dopaquinone) (SK-MEL-28 [3]; [19]): 80.66% | OD475 (dopaquinone) (SK-MEL-28 [3]; [20]): 0.0196 | OD475 Percentage (dopaquinone) (SK-MEL-28 [3]; [20]): 122.5% | OD475 (dopaquinone) (SK-MEL-28 [3]; [21]): 0.0406 | OD475 Percentage (dopaquinone) (SK-MEL-28 [3]; [21]): 105.18% | OD475 (dopaquinone) (SK-MEL-28 [3]; [22]): 0.0040 | OD475 expressed as percentage of control (dopaquinone) (SK-MEL-28 [3]; [22]): 35% | OD475 (dopaquinone) (SK-MEL-28 [3]; [23]): 0.0612 | OD475 Percentage (dopaquinone) (SK-MEL-28 [3]; [23]): 96.22% | OD475 (dopaquinone) (SK-MEL-28 [3]; [24]): 0.0200 | OD475 Percentage (dopaquinone) (SK-MEL-28 [3]; [24]): 125.0% | OD475 (dopaquinone) (SK-MEL-28 [3]; [25]): 0.0273 | OD475 Percentage (dopaquinone) (SK-MEL-28 [3]; [25]): 70.72% | OD475 (dopaquinone) (SK-MEL-28 [3]; [26]): 0.0643 | OD475 Percentage (dopaquinone) (SK-MEL-28 [3]; [26]): 101.10%
